{"source": "patent US20110207697A1", "about": "“XANTHOHUMOL COMPOSITIONS AND METHODS FOR TREATING SKIN DISEASES OR DISORDERS” (Betal, LLC, priority 2008, published 2011)", "key": {"[1]": {"tested_on": "K. rhizophila (formerly M. luteus) (ATCC 9341)", "test": "Antimicrobial susceptibility, broth dilution (MIC/MBC)", "format": "cell-based, Kocuria rhizophila", "protocol": "The antibacterial effects of seven hops components against five different strains of bacteria involved in primary or secondary skin and soft tissue infections was evaluated, with broth dilution methods. […] Antimicrobial susceptibility testing was performed using a broth dilution method. Gentamicin or ampicillin was used as a control to verify the methodology. A stock solution (20 mg/ml) of the test substance (or vehicle control) was prepared in dimethyl sulfoxide. Serial dilution was done in microwell plates. Reinforced Clostridial Medium was used for P. acnes (ATCC 6919). Three hundreds […] of the test substance was added to the test tube containing P. acnes (10^5 CFU/ml) in 2.7 ml of cultures grown under anaerobic conditions. Mueller-Hinston Broth suitable for culturing S. epidermidis (ATCC 12228), K. rhizophila (formerly M. luteus) (ATCC 9341), and S. aureus (ATCC […]), and Brain Heart Infusion Broth suitable for culturing S. pyogenes (ATCC 14289) were used. A total of […] of the test substance was added to the test tube containing the other microorganisms (10^5CFU/ml) in 0.9 ml of cultures grown under controlled conditions. […] Samples from those tubes that scored positive was plated onto an agar plate and incubated under controlled conditions."}, "[2]": {"test": "Water solubility of xanthohumol (HPLC of supernatant)", "format": "physicochemical", "settings": "thermodynamic from solid, 1 mg xanthohumol per ml water, sonicated 5 minutes", "protocol": "Pure xanthohumol (XN), Xanohop A, xanthohumol-gamma cyclodextrin (XN/gCD), and xanthohumol-beta cyclodextrin (XN/bCD) were dispersed in water at a ratio of 1 mg xanthohumol per ml of water. After being sonicated for 5 minutes, the resultant suspensions were centrifuged at 3,000 rpm for 2 minutes or 12,000 rpm for 3 minutes. The supernatants thus formed were collected, diluted (1:10) with methanol, and then injected into HPLC to determine xanthohumol concentrations."}}, "note": "Read-outs that look alike come from different tables or passages of the source."}
{"smiles": "COc1cc(O)c(CC=C(C)C)c(O)c1C(=O)/C=C/c1ccc(O)cc1", "note": "[Xanthohumol (7), 3′-[3,3-dimethylallyl]-2′,4′,4-trihydroxy-6′-methoxychalcone]", "values": [{"measurement": "MBC", "setting": "[1]", "value": "[10] g/mL"}, {"measurement": "MIC", "setting": "[1]; 1 day", "value": 1, "unit": "µg/mL"}, {"measurement": "MIC", "setting": "[1]; Kocuria rhizophila, ATCC9341", "value": 1000, "unit": "µg/mL"}, {"measurement": "solubility at 5 min", "setting": "[2]; centrifuged 3,000 rpm 2 minutes, read-out: Water-solubility of XN (3,000 rpm)", "value": 4, "unit": "µg/mL"}, {"measurement": "solubility at 5 min", "setting": "[2]; centrifuged 12,000 rpm 3 minutes, read-out: Water-solubility of XN (12,000 rpm)", "value": 2, "unit": "µg/mL"}]}
